Results: PMC8200971, “Design, Synthesis, Biological Evaluation and Silico Prediction of Novel Sinomenine Derivatives” (Molecules, 2021)

Key:
[1] = test system: SW480 (human colon adenocarcinoma cell lines); test: CCK8 cytotoxicity assay; format: cell-based; conditions: CCK8, 60 h, mean ± SD of three independent experiments; read-out: IC50 SW480
Experimental: (§1) Cytotoxicity screens were performed to assess the in vitro anticancer activity of the synthesized sinomenine derivatives 6a–6l on the various cancer cell lines MCF-7, Hela, SW480, and A549, as well as on Hek293 as a normal cell line, at doses of 2.5 and 25 μM. The obtained inhibition ratios data were used to construct a heat map (Figure 3, Tables S1 and S2) in order to select compounds that exert cancer cell line-specific cytotoxicity. Then, the IC50 values of the promising compound were determined. Cisplatin was used as a reference standard. The antiproliferative activity was based on the evaluation of the percent viability using the CCK8 assay, which is a rapid and sensitive method for determining the number of viable cells in culture. In the presence of electronic coupling reagents, WST-8 can be reduced by a dehydrogenase in the mitochondria to produce a highly water-soluble orange-yellow formazan product. Its color is proportional to the proliferation of the number of viable cells and is related to cytotoxicity. Using a microplate reader to measure the OD value can indirectly reflect the number of living cells at 450 nm wavelength.
(§2) To understand structure–function relationships, these selected compounds were subjected to subsequent analyses. All six compounds (6a and 6c–6g) were further examined to determine their IC50 concentrations on the previously mentioned cell lines, and their efficacy was compared to the reference drug cisplatin. For this, six compounds and cisplatin were evaluated on Hela, MCF-7, SW480, and A549, and on noncancerous Hek293 cell lines at various concentrations for 60 h. IC50 values were calculated (Table 2).
(§3) The MCF-7 (human breast cancer cell lines), Hela (human cervical cancer cell lines), SW480 (human colon adenocarcinoma cell lines), A549 (human lung adenocarcinoma cell lines) and nontoxic normal cells Hek293 (human embryonic kidney cell lines) cells were used to measure the cytotoxicity of the 6a–6l. They were obtained from the Beijing Normal University (Beijing, China). The test cell lines were cultured in DMEM, IMDM, F12 and DMEM nutrient medium containing 10% heat-inactivated fetal bovine serum, […] and 100 units/mL penicillin in a humified, 5% (v/v) CO2 atmosphere at 37 °C.
(§4) Cell viability was estimated using the CCK8 assay. Tumor cells ([…]) viz. MCF-7, Hela, SW480, A549 and nontoxic normal cells Hek293 were seeded in medium containing Corning® 96-well tissue culture plates at confluences of […], respectively, in Incucyte ZOOM. Fresh medium (100 μL) containing different concentrations of the test sample was added after 12 h of seeding. The microtiter plates were incubated at 37 °C in a humidified incubator with 5% CO2 for 60 h. Triplicates from each concentration were used. Negative control cells were incubated without sample and cisplatin as a positive control. At the end of treatment, the numbers of viable cells were determined by the CCK8 test. In brief, the media was removed from the 96 well plates and replaced with 100 μL of fresh culture medium with 10% CCK8 solution added to each well including the untreated controls. The 96 well plates were then incubated at 37 °C and 5% CO2 for 1–4 h. Then, the absorbance was measured at 450 nm using a BMG LABTECH®-POLAR star Omega microplate reader (Ortenberg, Germany) to determine the number of viable cells, and the percentage of viability was calculated as ((ODt- ODb/ODc- ODb)) × 100%, where ODt is the mean optical density of wells treated with the tested sample, ODc is the mean optical density of wells treated with DMSO and ODb is the mean optical density of PBS wells without cells. The relation between surviving cells and drug concentrations were plotted to get the survival curve of each tumor cell line after treatment with the specified compound. […]

[2] = test system: A549 (human lung adenocarcinoma cell lines); test: CCK8 cytotoxicity assay; format: cell-based; conditions: CCK8, 60 h, mean ± SD of three independent experiments; read-out: IC50 A549
Experimental: as §1, §2, §3, §4

[3] = test system: MCF-7 (human breast cancer cell lines); test: CCK8 cytotoxicity assay; format: cell-based; conditions: CCK8, 60 h, mean ± SD of three independent experiments; read-out: IC50 MCF-7
Experimental: as §1, §2, §3, §4

[4] = test system: Hela (human cervical cancer cell lines); test: CCK8 cytotoxicity assay; format: cell-based; conditions: CCK8, 60 h, mean ± SD of three independent experiments; read-out: IC50 Hela
Experimental: as §1, §2, §3, §4

[5] = test system: Hek293 (human embryonic kidney cell lines); test: CCK8 cytotoxicity assay, normal cells; format: cell-based; conditions: normal cell line, CCK8, 60 h, mean ± SD of three independent experiments; read-out: IC50 Hek293
Experimental: as §1, §2, §3, §4

SMILES	melting point [°C]	other results
N.N.[Cl][Pt][Cl] [Cisplatin, reference compound]	–	IC50 [1]: 1.98 ± 0.15 µM; IC50 [2]: 14.3 ± 0.7 µM; IC50 [3]: 3.45 ± 0.82 µM; IC50 [4]: 4.57 ± 0.43 µM; IC50 [5]: 3.19 ± 0.6 µM
COC1=C[C@@H]2[C@@H]3Cc4c(CN5CCCCC5)cc(OC)c(OC(=O)Cc5ccc(Cl)cc5)c4[C@]2(CCN3C)CC1=O [5a, (4bR,8aS,9S)-3,7-dimethoxy-11-methyl-6-oxo-1-(piperidin-1-ylmethyl)-6,8a,9,10-tetrahydro-5H-9,4b-(epiminoethano)phenanthren-4-yl 2-(4-chlorophenyl)acetate]	105 to 107	–
COC1=C[C@@H]2[C@@H]3Cc4c(CN5CCCCC5)cc(OC)c(OC(=O)Cc5ccccc5C)c4[C@]2(CCN3C)CC1=O [5d, (4bR,8aS,9S)-3,7-dimethoxy-11-methyl-6-oxo-1-(piperidin-1-ylmethyl)-6,8a,9,10-tetrahydro-5H-9,4b-(epiminoethano)phenanthren-4-yl 2-(o-tolyl)acetate]	177 to 178	–
COC1=C[C@@H]2[C@@H]3Cc4c(CN5CCCCC5)cc(OC)c(OC(=O)CCc5ccccc5)c4[C@]2(CCN3C)CC1=O [5e, (4bR,8aS,9S)-3,7-dimethoxy-11-methyl-6-oxo-1-(piperidin-1-ylmethyl)-6,8a,9,10-tetrahydro-5H-9,4b-(epiminoethano)phenanthren-4-yl 3-phenylpropanoate]	181 to 185	–

Further lines, with some results ahead:

melting point [°C]	SMILES	other results
128 to 130	COC1=C[C@@H]2[C@@H]3Cc4c(CN5CCCCC5)cc(OC)c(OC(=O)Cc5ccc(F)cc5)c4[C@]2(CCN3C)CC1=O [5k, (4bR,8aS,9S)-3,7-dimethoxy-11-methyl-6-oxo-1-(piperidin-1-ylmethyl)-6,8a,9,10-tetrahydro-5H-9,4b-(epiminoethano)phenanthren-4-yl 2-(4-fluorophenyl)acetate]	–
151 to 154	COC1=C[C@@H]2[C@@H]3Cc4c(CN5CCCCC5)cc(OC)c(OC(=O)Cc5ccc(OC)c(OC)c5)c4[C@]2(CCN3C)CC1=O [5c, (4bR,8aS,9S)-3,7-dimethoxy-11-methyl-6-oxo-1-(piperidin-1-ylmethyl)-6,8a,9,10-tetrahydro-5H-9,4b-(epiminoethano)phenanthren-4-yl 2-(3,4-dimethoxyphenyl)acetate]	–
121 to 122	COC1=C[C@@H]2[C@@H]3Cc4c(CN5CCCCC5)cc(OC)c(OC(=O)Cc5ccc(OC)cc5)c4[C@]2(CCN3C)CC1=O [5h, (4bR,8aS,9S)-3,7-dimethoxy-11-methyl-6-oxo-1-(piperidin-1-ylmethyl)-6,8a,9,10-tetrahydro-5H-9,4b-(epiminoethano)phenanthren-4-yl 2-(4-methoxyphenyl)acetate]	–
